Here are results for 2 compounds from patent US20220062299A1, “USE OF GLUCOCORTICOID STEROIDS IN PREVENTING AND TREATING CONDITIONS OF MUSCLE WASTING, AGING AND METABOLIC DISORDER” (NORTHWESTERN UNIVERSITY, priority 2018, published 2022).

For test [1], the system named is mdx; Dysf-null; Sgcg-null mice. As to the kind of experiment: Once-weekly glucocorticoids in three murine models of muscle disease. Conditions: 1 mg/kg once-weekly, contrary to daily dosing. The class given is in vivo, mouse. An excerpt: Glucocorticoid steroids are widely prescribed drugs for chronic inflammatory conditions, and their daily intake generally correlates with muscle wasting and weakness, osteoporosis, obesity and metabolic disorders. […] (Quattrocelli et al, J Clin Invest 2017; Quattrocelli et al, Am J Pathol 2017; Quattrocelli et al., JCI Insight. 2019 Dec. 19; 4(24). pii: 132402. doi: 10.1172/jci.insight.132402).

Test [2] relates to Duchenne muscular dystrophy boys. Further details: dose or concentration left out as unconfirmed. As to conditions: cited from earlier work.

On to `CC(=O)OCC(=O)[C@@]12N=C(C)O[C@@H]1C[C@H]1[C@@H]3CCC4=CC(=O)C=C[C@]4(C)[C@H]3[C@@H](O)C[C@@]12C` [deflazacort], for which, in test [1], the “muscle force and mass” value is listed as “improved”. `CC/C=C\C/C=C\C/C=C\C/C=C\C/C=C\C/C=C\CCC(=O)NCCNC(=O)c1ccccc1O` [Edasalonexent]: the muscle disease progression result in test [2] is on record as “delayed”.
